From article PMC8348200, “Selective Antifungal Activity and Fungal Biofilm Inhibition of Tryptophan Center Symmetrical Short Peptide” (International Journal of Molecular Sciences, 2021)
≈ marks a conversion by molar mass, not a printed value. Where two headings read alike, the source gives them in different places.

Assays:
Test in all cases: microbe, parasite or virus in culture
S. aureus 25923 = assay type: cell-based, Staphylococcus aureus; conditions: MHB, 37 °C 24 h, peptides 0.5-128 μM, lowest concentration inhibiting 95% of growth, three independent experiments, read-out: MICs, S. aureus 25923
Procedure: (§1) The peptide antimicrobial activity was determined according to the Clinical and Laboratory Standards Institute method, with modifications. Bacteria concentration was measured by ultraviolet spectrophotometer, and fungi concentration was confirmed by McMillan’s turbidimetric method, which compared the fungi solution with the standard McFarland tube in front of the horizontal line on the paper with the naked eye. Because the light has different refract in different liquids. The standard solution is composed of sulfuric acid and barium chloride, which is equivalent to 1*10^8 CFU fungi. After cultivation, the growth of fungi and bacteria was measured by TECAN automatic enzyme label instrument. Briefly, bacterial cells were cultured in MHB until logarithmic phase, yeast colonies cultured in Yeast Peptone Dextrose Agar (YPDA) were picked and diluted in RPMI 1640 growth medium buffered with morpholine propane sulfonic acid (MOPS), and then 50 μL of bacterial or fungi cell solution (0.5–1 × 10^4 CFU/mL) was added to each well of sterile 96-well plates. Each well contained 50 μL of AMPs dissolved in BSA; the final concentrations of the peptides ranged from 0.5 to 128 μM. The lowest concentration of peptide with no microbial growth being observed were measured after incubation at 37 °C for 24 h for bacteria or at 28 °C for 48 h for fungi. Broth with microbial cells and un-inoculated broth were used as positive control and negative controls, respectively.

L. rhamnosus 1.0385 = assay type: cell-based, Lactobacillus rhamnosus; conditions: 37 °C 24 h, peptides 0.5-128 μM, lowest concentration inhibiting 95% of growth, three independent experiments, read-out: MICs, L. rhamnosus 1.0385
Procedure: as §1

L. rhamnosus 1.0911 = assay type: cell-based, Lactobacillus rhamnosus; conditions: 37 °C 24 h, peptides 0.5-128 μM, lowest concentration inhibiting 95% of growth, three independent experiments, read-out: MICs, L. rhamnosus 1.0911
Procedure: as §1

[1] = tested on: C. parapsilosis cgmcc 2.3989; assay type: cell-based; conditions: RPMI 1640 buffered with MOPS, 28 °C 48 h, 0.5-128 μM, read-out: MICs, C. parapsilosis cgmcc 2.3989
Procedure: as §1

[2] = tested on: C. tropicalis cgmcc 2.1975; assay type: cell-based; conditions: RPMI 1640 buffered with MOPS, 28 °C 48 h, 0.5-128 μM, read-out: MICs, C. tropicalis cgmcc 2.1975
Procedure: as §1

L. plantarum 7469 = assay type: cell-based; conditions: 37 °C 24 h, peptides 0.5-128 μM, lowest concentration inhibiting 95% of growth, three independent experiments, read-out: MICs, L. plantarum 7469
Procedure: as §1

S. thermophilus YM-C = assay type: cell-based, Streptococcus thermophiles; conditions: 37 °C 24 h, peptides 0.5-128 μM, lowest concentration inhibiting 95% of growth, three independent experiments, read-out: MICs, S. thermophilus YM-C
Procedure: as §1

[3] = tested on: C. albicans Isolated from Alveolar Fluid; assay type: cell-based, Candida albicans; conditions: RPMI 1640 buffered with MOPS, 28 °C 48 h, 0.5-128 μM, read-out: MICs, C. albicans Isolated from Alveolar Fluid
Procedure: as §1

C. albicans SP3902 = assay type: cell-based, Candida albicans; conditions: clinical isolate, RPMI 1640 buffered with MOPS, 28 °C 48 h, 0.5-128 μM, read-out: MICs, C. albicans SP3902
Procedure: as §1

C. albicans SP3903 = assay type: cell-based, Candida albicans; conditions: clinical isolate, RPMI 1640 buffered with MOPS, 28 °C 48 h, 0.5-128 μM, read-out: MICs, C. albicans SP3903
Procedure: as §1

C. albicans SP3937 = assay type: cell-based, Candida albicans; conditions: clinical isolate, RPMI 1640 buffered with MOPS, 28 °C 48 h, 0.5-128 μM, read-out: MICs, C. albicans SP3937
Procedure: as §1

C. albicans cgmcc 2.2086 = assay type: cell-based, Candida albicans; conditions: RPMI 1640 buffered with MOPS, 28 °C 48 h, 0.5-128 μM, read-out: MICs, C. albicans cgmcc 2.2086
Procedure: as §1

C.albicans cgmcc 2.2086 = assay type: cell-based, Candida albicans; conditions: C.albicans cgmcc 2.2086
Procedure: as §1, with “The lowest concentration of peptide with no microbial growth being observed were measured after incubation at 37 °C for 24 h for bacteria or at 28 °C for 48 h for fungi.” left out
The salt and acid sensitivities of the peptides were measured using with modified method to test MIC values; tested peptides were incubated in the presence of different final concentrations of physiological salts. The subsequent steps were consistent with the MIC determination protocol.

[4] = Lacticaseibacillus rhamnosus, 1.0385
[5] = Lacticaseibacillus rhamnosus, 1.0911
[6] = Lodderomyces parapsilosis, CGMCC2
[7] = Lactiplantibacillus plantarum, 7469
[8] = Candida albicans, CGMCC2, no added salt, read-out: MIC, Control
[9] = Candida albicans, CGMCC2, pH = 6 (acidic conditions), read-out: MIC in acid environment, pH = 6
[10] = Candida albicans, CGMCC2, physiological concentration of FeCl3, read-out: MIC in the presence of FeCl3
[11] = Candida albicans, CGMCC2, physiological concentration of KCl, read-out: MIC in the presence of KCl
[12] = Candida albicans, CGMCC2, physiological concentration of MgCl2, read-out: MIC in the presence of MgCl2
[13] = Candida albicans, CGMCC2, physiological concentration of NH4Cl, read-out: MIC in the presence of NH4Cl
[14] = Candida albicans, CGMCC2, physiological concentration of NaCl (Na+), read-out: MIC in the presence of NaCl
[15] = Candida albicans, CGMCC2, physiological concentration of ZnCl2, read-out: MIC in the presence of ZnCl2

| SMILES | MIC (S. aureus 25923; Staphylococcus aureus, 25923) | MIC (L. rhamnosus 1.0385; [4]) | MIC (L. rhamnosus 1.0911; [5]) | MIC [1, 6] | MIC ([2]; Candida tropicalis, CGMCC2) | MIC (L. plantarum 7469; [7]) | MIC (S. thermophilus YM-C; Streptococcus thermophilus) | MIC ([3]; Candida albicans) | MIC (C. albicans SP3902; Candida albicans, SP3902) | MIC (C. albicans SP3903; Candida albicans, SP3903) | MIC (C. albicans SP3937; Candida albicans, SP3937) | MIC (C. albicans cgmcc 2.2086; Candida albicans, CGMCC2) | MIC (C.albicans cgmcc 2.2086; [8]) | MIC (C.albicans cgmcc 2.2086; [9]) | MIC (C.albicans cgmcc 2.2086; [10]) | MIC (C.albicans cgmcc 2.2086; [11]) | MIC (C.albicans cgmcc 2.2086; [12]) | MIC (C.albicans cgmcc 2.2086; [13]) | MIC (C.albicans cgmcc 2.2086; [14]) | MIC (C.albicans cgmcc 2.2086; [15]) | further results |
| --- | --- | --- | --- | --- | --- | --- | --- | --- | --- | --- | --- | --- | --- | --- | --- | --- | --- | --- | --- | --- | --- |
| C[C@@H]1[C@H](O)[C@@H](C)/C=C/C=C/C=C/C=C/C=C/C=C/C=C/[C@H](O[C@@H]2O[C@H](C)[C@@H](O)[C@H](N)[C@@H]2O)C[C@@H]2O[C@](O)(C[C@@H](O)C[C@@H](O)[C@H](O)CC[C@@H](O)C[C@@H](O)CC(=O)O[C@H]1C)C[C@H](O)[C@H]2C(=O)O [Amphotericin B, reference compound] | > 128 µM | > 128 µM | > 128 µM | 2 µM (≈ 1.85 µg/mL) | 1 µM (≈ 0.924 µg/mL) | > 128 µM | > 128 µM | 1 µM (≈ 0.924 µg/mL) | 0.5 µM (≈ 0.462 µg/mL) | 0.5 µM (≈ 0.462 µg/mL) | 0.5 µM (≈ 0.462 µg/mL) | 1 µM (≈ 0.924 µg/mL) | 1 µM | 1 µM (≈ 0.924 µg/mL) | 1 µM | 1 µM | 1 µM | 1 µM | 2 µM | 1 µM |  |
| OC(Cn1cncn1)(Cn1cncn1)c1ccc(F)cc1F [Fluconazole, reference compound] | > 128 µM | > 128 µM | > 128 µM | 4 µM (≈ 1.23 µg/mL) | 4 µM (≈ 1.23 µg/mL) | > 128 µM | > 128 µM | 2 µM (≈ 0.613 µg/mL) | 16 µM (≈ 4.9 µg/mL) | 32 µM (≈ 9.8 µg/mL) | 16 µM (≈ 4.9 µg/mL) | 1 µM (≈ 0.306 µg/mL) | 1 µM | 1 µM (≈ 0.306 µg/mL) | 1 µM | 1 µM | 1 µM | 1 µM | 2 µM | 1 µM |  |
| CC[C@H](C)[C@H](NC(=O)CN)C(=O)NCC(=O)N[C@@H](C)C(=O)N[C@H](C(=O)N[C@@H](CC(C)C)C(=O)N[C@@H](CCCCN)C(=O)N[C@H](C(=O)N[C@@H](CC(C)C)C(=O)N[C@H](C(=O)N[C@H](C(=O)NCC(=O)N[C@@H](CC(C)C)C(=O)N1CCC[C@H]1C(=O)N[C@@H](C)C(=O)N[C@@H](CC(C)C)C(=O)N[C@H](C(=O)N[C@@H](CO)C(=O)N[C@@H](Cc1c[nH]c2ccccc12)C(=O)N[C@H](C(=O)N[C@@H](CCCCN)C(=O)N[C@@H](CCCNC(=N)N)C(=O)N[C@@H](CCCCN)C(=O)N[C@@H](CCCNC(=N)N)C(=O)N[C@@H](CCC(N)=O)C(=O)N[C@@H](CCC(N)=O)C(N)=O)[C@@H](C)CC)[C@@H](C)CC)[C@@H](C)O)[C@@H](C)O)C(C)C)C(C)C [Melittin, reference compound] |  |  |  |  |  |  |  |  |  |  |  |  |  |  |  |  |  |  |  |  | MIC (S. aureus 25923): 2 µM (≈ 5.69 µg/mL); MIC (L. rhamnosus 1.0385): >128 µM; MIC (L. rhamnosus 1.0911): >128 µM; MIC [1]: 2 µM (≈ 5.69 µg/mL); MIC [2]: 2 µM (≈ 5.69 µg/mL); MIC (L. plantarum 7469): >128 µM; MIC (S. thermophilus YM-C): >128 µM; MIC [3]: 4 µM (≈ 11.4 µg/mL); MIC (C. albicans SP3902): 4 µM (≈ 11.4 µg/mL); MIC (C. albicans SP3903): 2 µM (≈ 5.69 µg/mL); MIC (C. albicans SP3937): 4 µM (≈ 11.4 µg/mL); MIC (C. albicans cgmcc 2.2086): 4 µM (≈ 11.4 µg/mL); MIC (C.albicans cgmcc 2.2086; no added salt, read-out: MIC, Control): 4 µM; MIC (C.albicans cgmcc 2.2086; pH = 6 (acidic conditions), read-out: MIC in acid environment, pH = 6): 4 µM (≈ 11.4 µg/mL); MIC (C.albicans cgmcc 2.2086; physiological concentration of FeCl3, read-out: MIC in the presence of FeCl3): 4 µM; MIC (C.albicans cgmcc 2.2086; physiological concentration of KCl, read-out: MIC in the presence of KCl): 4 µM; MIC (C.albicans cgmcc 2.2086; physiological concentration of MgCl2, read-out: MIC in the presence of MgCl2): 8 µM; MIC (C.albicans cgmcc 2.2086; physiological concentration of NaCl (Na+), read-out: MIC in the presence of NaCl): 8 µM; MIC (C.albicans cgmcc 2.2086; physiological concentration of ZnCl2, read-out: MIC in the presence of ZnCl2): 4 µM |
